In PubChem BioAssay (NCI):
Several values for one entry are separate records, joined by “and”; a condition that tells them apart may be missing. Identical values can stand only once.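 Cultured in 96-well plates, cells were exposed to test compound for 48 hours across five concentrations. GI50 = concentration required for 50% inhibition of growth. TGI: concentration producing complete growth inhibition.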

Assays:
Test in all cases: growth of human tumour cells (NCI), 48 h
786-0 renal = test system: 786-0 renal
BT-549 breast = test system: BT-549 breast
CCRF-CEM leukemia = test system: CCRF-CEM leukemia
COLO 205 colon = test system: COLO 205 colon
HCC-2998 colon = test system: HCC-2998 colon
HOP-92 NSCLC = test system: HOP-92 NSCLC
NCI/ADR-RES ovarian = test system: NCI/ADR-RES ovarian
OVCAR-4 ovarian = test system: OVCAR-4 ovarian
OVCAR-8 ovarian = test system: OVCAR-8 ovarian
SK-MEL-5 melanoma = test system: SK-MEL-5 melanoma

| SMILES | GI50 (786-0 renal) | TGI (786-0 renal) | GI50 (BT-549 breast) | TGI (BT-549 breast) | GI50 (CCRF-CEM leukemia) | TGI (CCRF-CEM leukemia) | GI50 (COLO 205 colon) | TGI (COLO 205 colon) | GI50 (HCC-2998 colon) | TGI (HCC-2998 colon) | GI50 (HOP-92 NSCLC) | TGI (HOP-92 NSCLC) | GI50 (NCI/ADR-RES ovarian) | TGI (NCI/ADR-RES ovarian) | GI50 (OVCAR-4 ovarian) | TGI (OVCAR-4 ovarian) | GI50 (OVCAR-8 ovarian) | TGI (OVCAR-8 ovarian) | GI50 (SK-MEL-5 melanoma) | TGI (SK-MEL-5 melanoma) |
| --- | --- | --- | --- | --- | --- | --- | --- | --- | --- | --- | --- | --- | --- | --- | --- | --- | --- | --- | --- | --- |
| CC/C=C\C/C=C\C[C@H](O)C/C=C1/C(=O)C=C[C@@H]1C/C=C\CCCC(=O)O | 2.47 µM | 5.83 µM | 2.96 µM | 9.1 µM | 2.17 µM | 14 µM | 3.78 µM | 10.9 µM | 2.21 µM | 4.28 µM | 7.26 µM | 20.4 µM | 3.24 µM | > 100 µM | 4.15 µM | 20 µM | 3.56 µM | 13.9 µM | 2.42 µM | 5.98 µM |
| O=C(Nc1ccc(CN2CCOCC2)cc1)c1[nH]ncc1Nc1ncnc2sccc12 | 0.48 µM | 7.96 µM | 0.896 µM | 5.88 µM | 0.337 µM | 27.7 µM |  |  | 0.68 µM | 5.08 µM | 5.52 µM | > 100 µM | 0.578 µM | > 100 µM | 0.6 µM | 6.28 µM | 0.522 µM | 22.4 µM | 0.223 µM | 0.638 µM |
| COc1ccc2c(c1)C(=O)c1c-2c(Nc2ccc(C(C)=O)cc2)nc2ccccc12 | 12.3 µM | 32.2 µM | 17.7 µM | 78.3 µM | > 100 µM | > 100 µM | > 100 µM | > 100 µM | 97.1 µM | > 100 µM | 24 µM | 73.7 µM | 41.7 µM | > 100 µM | 58.3 µM | > 100 µM | 18 µM | 64.9 µM | 48.3 µM | > 100 µM |
| COc1cc2nccc(Oc3ccc(NC(=O)C4(C(=O)Nc5ccc(F)cc5)CC4)cc3)c2cc1Oc1ccc(N)cn1 | 3.6 µM | 94.7 µM | 3.8 µM | > 100 µM | 3.95 µM | > 100 µM | 2.13 µM | 5.64 µM | 2.58 µM | 7.49 µM | 0.0492 µM | 3.03 µM | 3.83 µM | > 100 µM | 3.73 µM | > 100 µM | 3.77 µM | > 100 µM | 2.03 µM | 4.43 µM |
| COc1ccc2c(c1)C(=O)C(=O)c1cc(O)c(OC)c(OC)c1-2 | 1.85 µM | 1.72 µM and 3.26 µM | 1.66 µM | 1.44 µM and 3.02 µM | 0.451 µM | 2.65 µM and 2.92 µM | 1.89 µM | 3.54 µM and 3.74 µM |  | 10.5 µM and 14.1 µM | 1.7 µM | 1.79 µM and 3.19 µM | 1.84 µM | 2.41 µM and 5.22 µM | 1.56 µM | 1.59 µM and 2.9 µM | 1.62 µM | 1.6 µM and 2.98 µM | 1.68 µM | 1.53 µM and 3.07 µM |
| O=C(CN1CCN(c2ccc(Cl)cc2)CC1)N1CCN(c2nnc(-c3ccc(Cl)cc3)c(-c3ccc(Cl)cc3)n2)CC1 | 22 µM | > 100 µM | 28.7 µM | > 100 µM | 16.5 µM | 73.9 µM | 55.3 µM | > 100 µM | > 100 µM | > 100 µM | 22.4 µM | 60.4 µM | 34 µM | > 100 µM | > 100 µM | > 100 µM | > 100 µM | > 100 µM | 14.6 µM | > 100 µM |
| N#Cc1ccc(N2Cc3ccccc3OC3=C2C(=O)c2c(O)ccc(O)c2C3=O)cc1 | 0.145 µM | 0.381 µM | 0.572 µM | 1.26 µM | 0.0556 µM | 0.391 µM | 0.0907 µM | 0.268 µM | 0.762 µM | 1.79 µM | 0.163 µM | 0.409 µM | 0.611 µM | 6.8 µM | 0.216 µM | 0.793 µM | 0.336 µM | 2.5 µM | 0.685 µM | 2.26 µM |
| CN(N=O)C(=O)N[C@@H](C=O)[C@@H](O)[C@H](O)[C@H](O)CO | > 750 µM | > 750 µM |  | > 750 µM | > 750 µM | 522 µM and > 750 µM | > 750 µM | 640 µM and > 750 µM | > 750 µM | 600 µM and > 750 µM | > 750 µM | 621 µM and > 750 µM |  | > 750 µM | > 750 µM | 609 µM and > 750 µM | > 750 µM | > 750 µM | > 750 µM | 631 µM and > 750 µM |
| C/C1=C/C2=CC(C)C[C@@H]2C(=O)[C@]2(C)C(=O)CC(C)(C)[C@H]2CC1=O (stereo not given in full) |  | > 50 µM |  | > 50 µM |  | > 50 µM |  | > 50 µM |  | > 50 µM |  | > 50 µM |  | > 50 µM |  | > 50 µM |  | > 50 µM |  | > 50 µM |
| O=C(Nc1ccc(Cl)cc1F)c1cc(I)ccc1O | 2.98 µM | 9.24 µM | 0.735 µM | 2.64 µM | 2.78 µM | 9.77 µM | 4.52 µM | 17.5 µM | 3.1 µM | 11.9 µM | 0.171 µM | 0.679 µM | 2.02 µM | 8.68 µM | 2.04 µM | 15.5 µM | 2.02 µM | 9.96 µM | 1.12 µM | 2.53 µM |
| O=C(Nc1cccc(Oc2nnc(Cl)c3ccccc23)c1)Nc1ccc(Cl)c(C(F)(F)F)c1 | 0.767 µM | 3.01 µM | 0.674 µM | 3.07 µM | 0.208 µM | 17.5 µM | 0.97 µM | 3.9 µM | 0.872 µM | 3.48 µM | 0.352 µM | 1.96 µM | 0.926 µM | 9.95 µM | 0.593 µM | 6.01 µM | 1.3 µM | 9.5 µM | 0.985 µM | 3.25 µM |
| CN1CCN(c2ccc3nc(-c4c(N)c5c(F)cccc5[nH]c4=O)[nH]c3c2)CC1 | 1.2 µM and 0.695 µM and 0.946 µM | 3.93 µM and > 3.84 µM and 3.07 µM | 1.62 µM and 0.501 µM and 1.26 µM | 10.2 µM and > 2.97 µM and 5.95 µM | 0.834 µM and 0.684 µM and 1.01 µM | 7.93 µM and > 5.89 µM and 9.41 µM | 0.965 µM and 0.496 µM and 2.26 µM | 2.31 µM and > 2.04 µM and 17.2 µM | 1.33 µM and 0.867 µM and 1.36 µM | 5.24 µM and > 4.09 µM and 6.58 µM | 0.621 µM and 0.422 µM and 0.645 µM | 4.56 µM and > 2.93 µM and 5.82 µM | 1.77 µM and 2.64 µM and 2.47 µM | 7.18 µM and > 10 µM and 13 µM | 0.622 µM and 0.498 µM and 0.646 µM | 4.55 µM and > 10 µM and 10.9 µM | 1.26 µM and 0.874 µM and 1.67 µM | 3.21 µM and > 5.17 µM and 12.5 µM | 1.33 µM and 0.604 µM and 1.72 µM | 2.64 µM and 1.29 µM and 3.16 µM |
